Where “and” joins values, the source holds several entries; their conditions need not be identical. Equal values may be shown once. Inconclusive results and toxic doses are left out. How the source made its calls: active means survival T/C of 150% or more; inactive means T/C below 125% in these data.
Tested on: BDF1 mice, P388 leukemia ip, median survival T/C
Test: NCI In Vivo Anticancer Drug Screen. Data for tumor model P388 Leukemia (intraperitoneal) in B6D2F1 (BDF1) mice
Settings: endpoint: median survival time, higher = longer survival
Outline: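 Transplantable tumour in mice; compound vs vehicle dosing; survival scored; ratio of treated to control reported.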

[1] = dose: 100.0 mg/kg/injection, schedule: Q04DX003 (ip), vehicle: saline
[2] = dose: 200.0 mg/kg/injection, schedule: Q04DX003 (ip), vehicle: saline
[3] = dose: 50.0 mg/kg/injection, schedule: Q01DX009 (ip), vehicle: saline with Tween-80
[4] = dose: 100.0 mg/kg/injection, schedule: Q01DX009 (ip), vehicle: saline with Tween-80
[5] = dose: 200.0 mg/kg/injection, schedule: Q01DX009 (ip), vehicle: saline with Tween-80
[6] = dose: 25.0 mg/kg/injection, schedule: Q01DX009 (ip), vehicle: saline with Tween-80
[7] = dose: 100.0 mg/kg/injection, schedule: Q04DX003 (ip), vehicle: saline with Tween-80
[8] = dose: 200.0 mg/kg/injection, schedule: Q04DX003 (ip), vehicle: saline with Tween-80
[9] = dose: 400.0 mg/kg/injection, schedule: Q04DX003 (ip), vehicle: saline with Tween-80
[10] = dose: 400.0 mg/kg/injection, schedule: Q04DX003 (ip), vehicle: saline

Measured: T/C

C1CCC(=[N+]2CCCC2)CC1
inactive: dose: 50.0 mg/kg/injection, schedule: Q01DX009 (ip), vehicle: saline 100 % of control | dose: 100.0 mg/kg/injection, schedule: Q01DX009 (ip), vehicle: saline 100 % of control | [1] 109 % of control | dose: 200.0 mg/kg/injection, schedule: Q01DX009 (ip), vehicle: saline 112 % of control | [2] 100 % of control

O=[N+]([O-])c1ccc(/C=[N+](\[O-])CCO)o1
inactive: [3] 111 % of control | [4] 113 % of control | [5] 111 % of control

Cc1ccc(S(=O)(=O)N2CC(O)CC2C(=O)O)cc1 (configuration not stated)
inactive: dose: 100.0 mg/kg/injection, schedule: Q01DX001 (ip), vehicle: saline with Tween-80 118 % of control | dose: 200.0 mg/kg/injection, schedule: Q01DX001 (ip), vehicle: saline with Tween-80 100 % of control | dose: 400.0 mg/kg/injection, schedule: Q01DX001 (ip), vehicle: saline with Tween-80 113 % of control

O=C1/C(=C/c2ccccc2)Cc2ccccc21
inactive: [6] 96 % of control | [3] 96 % of control | [4] 94 % of control | [7] 107 % of control | [5] 96 % of control | [8] 100 % of control | [9] 99 % of control

C=C(C)C(=O)NCCCCCC(=O)Oc1ccc([N+](=O)[O-])cc1
inactive: dose: 12.5 mg/kg/injection, schedule: Q01DX009 (ip), vehicle: saline with Tween-80 95 % of control | [6] 116 % of control | [3] 86 % of control and 106 % of control | [5] 86 % of control

CC(=O)N(/N=C/c1cc(C=O)n(-c2ccccc2)n1)c1ccccc1
inactive: [3] 86 % of control | [4] 90 % of control | [5] 105 % of control

O=C1c2ccccc2CC1(Br)C(Br)c1ccccc1 (configuration not stated)
inactive: [4] 115 % of control | [7] 104 % of control | [5] 108 % of control | [8] 104 % of control | dose: 400.0 mg/kg/injection, schedule: Q01DX009 (ip), vehicle: saline with Tween-80 115 % of control | [9] 103 % of control

OC(C#CC(O)c1ccccc1)c1ccccc1 (configuration not stated)
inactive: [1] 100 % of control | [2] 104 % of control

COc1cccc2c1CCC1=C2CC=C2CC3(CCC21C)OCCO3 (configuration not stated)
inactive: dose: 5.0 mg/kg/injection, schedule: Q04DX003 (sc), vehicle: steriod suspending solution 109 % of control | dose: 10.0 mg/kg/injection, schedule: Q04DX003 (sc), vehicle: steriod suspending solution 104 % of control | dose: 20.0 mg/kg/injection, schedule: Q04DX003 (sc), vehicle: steriod suspending solution 118 % of control

O=S(=O)(O)c1cccc2cccc(Cl)c12
inactive: [1] 100 % of control | [2] 95 % of control | [10] 100 % of control

C[N-]c1nnnn1Cc1ccccc1.[Au+].c1ccc([PH+](c2ccccc2)c2ccccc2)cc1
inactive: dose: 25.0 mg/kg/injection, schedule: Q04DX002 (ip), vehicle: saline with Tween-80 109 % of control | dose: 50.0 mg/kg/injection, schedule: Q04DX002 (ip), vehicle: saline with Tween-80 102 % of control | dose: 100.0 mg/kg/injection, schedule: Q04DX002 (ip), vehicle: saline with Tween-80 116 % of control

CC(C)=CCO
inactive: [1] 100 % of control | [2] 104 % of control | [10] 104 % of control

c1ccc(-c2oc3ccc4ccccc4c3c2-c2ccc(OCCN3CCCC3)cc2)cc1
inactive: dose: 10.0 mg/kg/injection, schedule: Q01DX009 (ip), vehicle: Klucel (hydroxypropylcellulose) (HPC) 105 % of control | dose: 20.0 mg/kg/injection, schedule: Q01DX009 (ip), vehicle: Klucel (hydroxypropylcellulose) (HPC) 95 % of control | dose: 40.0 mg/kg/injection, schedule: Q01DX009 (ip), vehicle: Klucel (hydroxypropylcellulose) (HPC) 105 % of control | dose: 80.0 mg/kg/injection, schedule: Q01DX009 (ip), vehicle: Klucel (hydroxypropylcellulose) (HPC) 100 % of control

Cc1ccc(NC(=O)c2ccc([N+](=O)[O-])cc2)c(C)c1
inactive: [7] 100 % of control | [8] 104 % of control | [9] 96 % of control

O=S1(=O)C=Cc2ccccc21
inactive: dose: 50.0 mg/kg/injection, schedule: Q01DX009 (ip), vehicle: Klucel (hydroxypropylcellulose) (HPC) 92 % of control | dose: 100.0 mg/kg/injection, schedule: Q01DX009 (ip), vehicle: Klucel (hydroxypropylcellulose) (HPC) 100 % of control | dose: 100.0 mg/kg/injection, schedule: Q04DX003 (ip), vehicle: Klucel (hydroxypropylcellulose) (HPC) 100 % of control | dose: 200.0 mg/kg/injection, schedule: Q01DX009 (ip), vehicle: Klucel (hydroxypropylcellulose) (HPC) 107 % of control | dose: 200.0 mg/kg/injection, schedule: Q04DX003 (ip), vehicle: Klucel (hydroxypropylcellulose) (HPC) 95 % of control

— PubChem BioAssay AID328 (DTP/NCI, 2004)
